Test results as given in patent US20150083906A1, “BIOMARKERS FOR MONITORING INTERVENTION THERAPIES FOR DIABETES” (MERCK SHARP & DOHME CORP., priority 2012, published 2015).
“Also recorded” adds a separate entry of the source.

Experiments:
[1] = system: db/db mice; test: Study 1: plasma N-glycan profile (GLYCANMAP, MALDI-TOF MS) and HbA1c in rosiglitazone-treated db/db mice; type: in vivo; conditions: 10 mpk oral once daily, vs vehicle
Description: An initial study (Study 1) was an analysis of 160 plasma samples collected from rosiglitazone-treated mice following oral administration of 10 mpk once daily for up to 39 days. Rosigilitazone is an athiazolidinedione class of antidiabetic drug marketed by Glaxo under the trade name AVANDIA. […] These changes, on an individual N-glycan basis, reached high statistical significance (P<0.001) as early as seven days, a full two weeks prior to changes in HbA1c (day seven vs. day 21, respectively). […]
The objective of Study 1 was to evaluate N-linked glycosylation changes in plasma proteins that precede and predict the decrease in glycated hemoglobin (HbA1c) associated with successful resolution of diabetes. […] A baseline (Day 0) sample was not analyzed in the initial rosiglitazone study, but was included in the subsequent studies described in Examples 2 and 3.
GLYCANMAP Assay (a registered trademark of Ezose Sciences, Pine Brook, N.J.): A 10 μL aliquot of each plasma sample was spiked with internal standard (700 pmol) to aid in quantitation. The spiked aliquots were analyzed for N-linked glycans using GLYCANMAP methodology, which is based on the methods previously reported by Nishimura, Furukawa and Miura (Nishimura et al., Angew Chem. Int. Ed. Engl., 44: 91-96 (2004); Furukawa et al., Anal. Chem., 80: 1094-1101 (2008); Miura et al., Chem.-A Eur. J, 13: 4797-4804 (2007)). […]

[2] = system: db/db mice; test: Study 3: plasma N-glycan profile in insulin detemir-treated db/db mice; type: in vivo; conditions: for Direction of Change, High Mannose glycan 520000 (Man5GlcNAc2) / Direction of Change, High Mannose glycan 620000 (Man6GlcNAc2) / Direction of Change, High Mannose glycan 720000 (Man7GlcNAc2) / Direction of Change, High Mannose glycan 820000 (Man8GlcNAc2) / Direction of Change, Hybrid glycan 430010 / Direction of Change, Hybrid glycan 530010 / Direction of Change, Hybrid glycan 630010: subcutaneous, two doses of 10 U/kg per day, days 7, 14, 21, vs vehicle
Procedure: In Study 3, changes in the N-linked glycosylation profile of total serum proteins obtained from diabetic mice were further characterized using a different drug-treatment to determine the drug specificity of the rosiglitazone-induced changes. In an animal study, insulin detemir was administered subcutaneously in two doses of 10 U/kg per day. Samples were collected from insulin detemir and vehicle-treated db/db mice at four time points (0, 7, 14, and 21 days). (Insulin detemir is a long-acting insulin marketed by Novo Nordisk under the trade name LEVEMIR.). […] The high mannose N-glycans that were decreased in the insulin-treated db/db mice were Man8GlcNAc2 (820000), Man7GlcNAc2 (720000), Man6GlcNAc2 (620000), and Man5GlcNAc2 (520000). The hybrid N-glycans that were decreased in the insulin-treated db/db mice were SiaGalGlcNAcMan3GlcNAc2 (430010), SiaGalGlcNAcMan4GlcNAc2 (530010), and SiaGalGlcNAcMan5GlcNAc2 (630010), wherein Sia is Neu5Ac or Neu5Gc.
The objective of this study was to evaluate the performance of candidate biomarkers discovered using rosiglitazone in mice treated with a diabetes drug with a different mechanism of action. The 16 candidate markers that were identified in Example 1 were evaluated in db/db mice treated with insulin detemir and vehicle.
In this Example, plasma samples were analyzed from ten db/db mice at baseline (0 days), and 20 db/db mice (ten vehicle and ten insulin detemir) at 7, 14, and 21 days. Sample preparation and analysis followed the protocol described in Example 1.
Data Analysis: For this study, the analysis was extended to evaluate changes in all detected N-glycans in order to reveal any novel N-glycan changes that might be specific to insulin detemir. The extended analysis was not performed in Study 2, which included only baseline and Day 7 time points since N-glycan changes at Day 7 could not be evaluated to determine if they are sustained over time. Drug-treated and vehicle-treated db/db mice were compared across each time point using the Student's t-test. To evaluate time-dependent changes, each time point within a treatment group was compared to its corresponding Day 0 group. N-glycans which yielded p-values <0.05 in this analysis were considered significant.
The concentrations of individual N-glycans in insulin detemir- and vehicle-treated db/db mice were compared at each time point using the Student's t-test. […] Time-dependence was also evaluated for each of the candidate markers by comparing each time point to baseline.

[3] = serum samples, vs non-treated controls

## CN(CCOc1ccc(CC2SC(=O)NC2=O)cc1)c1ccccn1 (stereo not drawn) [rosiglitazone]
[1]
  Time at which highly significant (p<0.001) change in HbA1c was achieved: 21 days

## insulin detemir
[2]; [3]
  Change in O-acetylated N-glycans: No change
  Change in fucosylated N-glycans: No change
  Change in tetraantennary N-glycans: No change
[2]
  Direction of Change, High Mannose glycan 520000 (Man5GlcNAc2): decreased; also recorded: lower
  Direction of Change, High Mannose glycan 620000 (Man6GlcNAc2): decreased; also recorded: lower
  Direction of Change, High Mannose glycan 720000 (Man7GlcNAc2): decreased; also recorded: lower
  Direction of Change, High Mannose glycan 820000 (Man8GlcNAc2): decreased; also recorded: lower
  Direction of Change, Hybrid glycan 430010: decreases; also recorded: lower
  Direction of Change, Hybrid glycan 530010: decreases; also recorded: lower
  Direction of Change, Hybrid glycan 630010: decreases; also recorded: lower
[2]; listed as Insulin Detemir
  Direction of Change, High Mannose glycan 520000 (Man5GlcNAc2): Decreased
  Direction of Change, High Mannose glycan 620000 (Man6GlcNAc2): Decreased
  Direction of Change, High Mannose glycan 720000 (Man7GlcNAc2): Decreased
  Direction of Change, High Mannose glycan 820000 (Man8GlcNAc2): Decreased
  Direction of Change, Hybrid glycan 430010: Decreased
  Direction of Change, Hybrid glycan 530010: Decreased
  Direction of Change, Hybrid glycan 630010: Decreased
